Source: PubChem BioAssay (NCI)
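Compound exposure: 48 hours, 5 concentrations, 96-well plates. At the GI50, growth is halved. TGI denotes the concentration required for complete inhibition of growth.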

Key:
Test in all cases: NCI-60 cell line screen, 48 h; in the data active means GI50 below about 0.43 µM; inactive means the rest
COLO 205 colon = test system: COLO 205 colon
HCC-2998 colon = test system: HCC-2998 colon
PC-3 prostate = test system: PC-3 prostate
SK-MEL-5 melanoma = test system: SK-MEL-5 melanoma
SF-295 CNS = test system: SF-295 CNS
DU-145 prostate = test system: DU-145 prostate
A498 renal = test system: A498 renal
OVCAR-3 ovarian = test system: OVCAR-3 ovarian
RXF 393 renal = test system: RXF 393 renal
HOP-92 NSCLC = test system: HOP-92 NSCLC
SNB-19 CNS = test system: SNB-19 CNS
MDA-MB-435 = test system: MDA-MB-435
SNB-75 CNS = test system: SNB-75 CNS
HOP-62 NSCLC = test system: HOP-62 NSCLC
MCF7 breast = test system: MCF7 breast
M14 melanoma = test system: M14 melanoma
SF-268 CNS = test system: SF-268 CNS
CAKI-1 renal = test system: CAKI-1 renal
OVCAR-4 ovarian = test system: OVCAR-4 ovarian
OVCAR-5 ovarian = test system: OVCAR-5 ovarian
SW-620 colon = test system: SW-620 colon
MDA-N = test system: MDA-N
T-47D breast = test system: T-47D breast
CCRF-CEM leukemia = test system: CCRF-CEM leukemia
SK-MEL-28 melanoma = test system: SK-MEL-28 melanoma
MDA-MB-231 breast = test system: MDA-MB-231 breast
SN12C renal = test system: SN12C renal
UACC-62 melanoma = test system: UACC-62 melanoma
LOX IMVI melanoma = test system: LOX IMVI melanoma
TK-10 renal = test system: TK-10 renal
K-562 leukemia = test system: K-562 leukemia
ACHN renal = test system: ACHN renal
UO-31 renal = test system: UO-31 renal
SF-539 CNS = test system: SF-539 CNS
U251 CNS = test system: U251 CNS
KM12 colon = test system: KM12 colon
SK-MEL-2 melanoma = test system: SK-MEL-2 melanoma
NCI/ADR-RES ovarian = test system: NCI/ADR-RES ovarian
EKVX NSCLC = test system: EKVX NSCLC
HCT-116 colon = test system: HCT-116 colon
NCI-H226 lung = test system: NCI-H226 lung
UACC-257 melanoma = test system: UACC-257 melanoma
HCT-15 colon = test system: HCT-15 colon
A549 NSCLC = test system: A549 NSCLC
SK-OV-3 ovarian = test system: SK-OV-3 ovarian
786-0 renal = test system: 786-0 renal
HS 578T breast = test system: HS 578T breast
RPMI-8226 leukemia = test system: RPMI-8226 leukemia
OVCAR-8 ovarian = test system: OVCAR-8 ovarian
BT-549 breast = test system: BT-549 breast
HT29 colon = test system: HT29 colon
MOLT-4 leukemia = test system: MOLT-4 leukemia
NCI-H460 lung = test system: NCI-H460 lung
IGROV1 ovarian = test system: IGROV1 ovarian
HL-60(TB) leukemia = test system: HL-60(TB) leukemia
MALME-3M melanoma = test system: MALME-3M melanoma
NCI-H23 lung = test system: NCI-H23 lung
SR leukemia = test system: SR leukemia
NCI-H522 lung = test system: NCI-H522 lung

Nc1nc(Cl)c2nnn(CC3CCC(CO)C3)c2n1 (stereo not given)
> 100 µM: TGI (COLO 205 colon) | TGI (HCC-2998 colon) | TGI (PC-3 prostate) | TGI (SK-MEL-5 melanoma) | TGI (SF-295 CNS) | TGI (DU-145 prostate) | TGI (A498 renal) | TGI (OVCAR-3 ovarian) | TGI (RXF 393 renal) | TGI (HOP-92 NSCLC) | TGI (SNB-19 CNS) | TGI (MDA-MB-435) | TGI (SNB-75 CNS) | TGI (HOP-62 NSCLC) | TGI (MCF7 breast) | TGI (M14 melanoma) | TGI (SF-268 CNS) | TGI (CAKI-1 renal) | TGI (OVCAR-4 ovarian) | TGI (OVCAR-5 ovarian) | TGI (SW-620 colon) | TGI (MDA-N) | TGI (T-47D breast) | TGI (CCRF-CEM leukemia) | TGI (SK-MEL-28 melanoma) | TGI (MDA-MB-231 breast) | TGI (SN12C renal) | TGI (UACC-62 melanoma) | TGI (LOX IMVI melanoma) | TGI (TK-10 renal) | TGI (K-562 leukemia) | TGI (ACHN renal) | TGI (UO-31 renal) | TGI (SF-539 CNS) | TGI (U251 CNS) | TGI (KM12 colon) | TGI (SK-MEL-2 melanoma) | TGI (NCI/ADR-RES ovarian) | TGI (EKVX NSCLC) | TGI (HCT-116 colon) | TGI (NCI-H226 lung) | TGI (UACC-257 melanoma) | TGI (HCT-15 colon) | TGI (A549 NSCLC) | TGI (SK-OV-3 ovarian) | TGI (786-0 renal) | TGI (HS 578T breast) | TGI (RPMI-8226 leukemia)

CN(CCCl)c1ccc(/C=C/C2=[N+](C)c3ccccc3C2(C)C)cc1
5.62 µM: TGI (SK-MEL-2 melanoma)
10.2 µM: TGI (T-47D breast)
12.2 µM: TGI (HCT-116 colon)
10 µM: TGI (OVCAR-4 ovarian)
active: GI50 (OVCAR-8 ovarian) 0.353 µM | GI50 (COLO 205 colon) 0.339 µM | GI50 (PC-3 prostate) 0.243 µM | GI50 (BT-549 breast) 0.424 µM | GI50 (OVCAR-3 ovarian) 0.314 µM | GI50 (HOP-92 NSCLC) 0.288 µM | GI50 (HT29 colon) 0.307 µM | GI50 (MDA-MB-435) 0.415 µM | GI50 (MOLT-4 leukemia) 0.308 µM | GI50 (CCRF-CEM leukemia) 0.151 µM | GI50 (SN12C renal) 0.297 µM | GI50 (HL-60(TB) leukemia) 0.265 µM | GI50 (U251 CNS) 0.253 µM | GI50 (KM12 colon) 0.355 µM | GI50 (HCT-116 colon) 0.307 µM | GI50 (SR leukemia) 0.332 µM | GI50 (NCI-H522 lung) 0.296 µM | GI50 (RPMI-8226 leukemia) 0.331 µM
12.6 µM: TGI (A498 renal)
> 100 µM: TGI (NCI/ADR-RES ovarian)
4.3 µM: TGI (MALME-3M melanoma)
13.5 µM: TGI (SF-268 CNS)
12 µM: TGI (OVCAR-8 ovarian)
1.56 µM: TGI (COLO 205 colon)
11.2 µM: TGI (HT29 colon) | TGI (U251 CNS)
17.1 µM: TGI (OVCAR-5 ovarian)
43.6 µM: TGI (CAKI-1 renal)
7.57 µM: TGI (UACC-257 melanoma)
5.59 µM: TGI (MDA-MB-231 breast)
10.5 µM: TGI (RXF 393 renal)
10.6 µM: TGI (PC-3 prostate) | TGI (MCF7 breast) | TGI (NCI-H460 lung) | TGI (ACHN renal)
5.14 µM: TGI (SF-295 CNS)
1.4 µM: TGI (MOLT-4 leukemia)
0.756 µM: TGI (HL-60(TB) leukemia)
4.85 µM: TGI (BT-549 breast)
3.89 µM: TGI (NCI-H522 lung)
18.6 µM: TGI (IGROV1 ovarian)
15.5 µM: TGI (SNB-19 CNS)
3.15 µM: TGI (OVCAR-3 ovarian)
83.5 µM: TGI (K-562 leukemia)
12.5 µM: TGI (SR leukemia) | TGI (A549 NSCLC)
21.7 µM: TGI (HCT-15 colon)
17.4 µM: TGI (UO-31 renal)
12.8 µM: TGI (HCC-2998 colon)
32.1 µM: TGI (HS 578T breast)
15.3 µM: TGI (DU-145 prostate)
5.75 µM: TGI (CCRF-CEM leukemia)
13.8 µM: TGI (SF-539 CNS)
2.03 µM: TGI (SK-MEL-5 melanoma)
2.46 µM: TGI (MDA-MB-435) | TGI (RPMI-8226 leukemia)
15.9 µM: TGI (786-0 renal)
15.6 µM: TGI (SK-MEL-28 melanoma)
14.8 µM: TGI (M14 melanoma)
6.91 µM: TGI (SNB-75 CNS)
1.72 µM: TGI (SN12C renal)
7.68 µM: TGI (UACC-62 melanoma)
2.2 µM: TGI (HOP-92 NSCLC)
5.41 µM: TGI (SK-OV-3 ovarian)
14.9 µM: TGI (TK-10 renal) | TGI (EKVX NSCLC) | TGI (NCI-H226 lung)
14 µM: TGI (SW-620 colon)
1.55 µM: TGI (KM12 colon)
inactive: GI50 (HCC-2998 colon) 1.6 µM | GI50 (SK-MEL-5 melanoma) 0.532 µM | GI50 (SF-295 CNS) 0.728 µM | GI50 (DU-145 prostate) 0.598 µM | GI50 (A498 renal) 1.34 µM | GI50 (RXF 393 renal) 1.57 µM | GI50 (SNB-19 CNS) 0.495 µM | GI50 (SNB-75 CNS) 1.2 µM | GI50 (HOP-62 NSCLC) 1.07 µM | GI50 (MCF7 breast) 0.516 µM | GI50 (M14 melanoma) 1.03 µM | GI50 (SF-268 CNS) 0.691 µM | GI50 (CAKI-1 renal) 17.5 µM | GI50 (OVCAR-4 ovarian) 1.62 µM | GI50 (OVCAR-5 ovarian) 3.71 µM | GI50 (SW-620 colon) 0.494 µM | GI50 (NCI-H460 lung) 0.679 µM | GI50 (T-47D breast) 0.706 µM | GI50 (SK-MEL-28 melanoma) 0.685 µM | GI50 (MDA-MB-231 breast) 0.579 µM | GI50 (IGROV1 ovarian) 1.73 µM | GI50 (UACC-62 melanoma) 0.482 µM | GI50 (TK-10 renal) 2.37 µM | GI50 (K-562 leukemia) 0.491 µM | GI50 (ACHN renal) 2.19 µM | GI50 (UO-31 renal) 4.39 µM | GI50 (SF-539 CNS) 2.11 µM | GI50 (MALME-3M melanoma) 0.575 µM | GI50 (NCI-H23 lung) 0.434 µM | GI50 (SK-MEL-2 melanoma) 1.33 µM | GI50 (NCI/ADR-RES ovarian) 65.8 µM | GI50 (EKVX NSCLC) 0.863 µM | GI50 (NCI-H226 lung) 1.21 µM | GI50 (UACC-257 melanoma) 0.657 µM | GI50 (HCT-15 colon) 6.3 µM | GI50 (A549 NSCLC) 0.9 µM | GI50 (SK-OV-3 ovarian) 0.713 µM | GI50 (786-0 renal) 3.9 µM | GI50 (HS 578T breast) 1.53 µM
11 µM: TGI (NCI-H23 lung)
10.9 µM: TGI (HOP-62 NSCLC)

Cc1c2c(n(CCN(C)C)c1C)NN=C(C#N)S2(=O)=O
> 100 µM: TGI (OVCAR-8 ovarian) | TGI (COLO 205 colon) | TGI (HCC-2998 colon) | TGI (PC-3 prostate) | TGI (DU-145 prostate) | TGI (OVCAR-3 ovarian) | TGI (HT29 colon) | TGI (SNB-19 CNS) | TGI (MDA-MB-435) | TGI (SNB-75 CNS) | TGI (HOP-62 NSCLC) | TGI (MCF7 breast) | TGI (M14 melanoma) | TGI (SF-268 CNS) | TGI (MOLT-4 leukemia) | TGI (OVCAR-4 ovarian) | TGI (OVCAR-5 ovarian) | TGI (SW-620 colon) | TGI (NCI-H460 lung) | TGI (MDA-N) | TGI (T-47D breast) | TGI (SK-MEL-28 melanoma) | TGI (MDA-MB-231 breast) | TGI (IGROV1 ovarian) | TGI (SN12C renal) | TGI (UACC-62 melanoma) | TGI (LOX IMVI melanoma) | TGI (TK-10 renal) | TGI (K-562 leukemia) | TGI (ACHN renal) | TGI (UO-31 renal) | TGI (SF-539 CNS) | TGI (MALME-3M melanoma) | TGI (NCI-H23 lung) | TGI (U251 CNS) | TGI (KM12 colon) | TGI (SK-MEL-2 melanoma) | TGI (NCI/ADR-RES ovarian) | TGI (EKVX NSCLC) | TGI (HCT-116 colon) | TGI (NCI-H226 lung) | TGI (UACC-257 melanoma) | TGI (HCT-15 colon) | TGI (A549 NSCLC) | TGI (SK-OV-3 ovarian) | TGI (786-0 renal) | TGI (HS 578T breast) | TGI (RPMI-8226 leukemia)
